{
  "source": "patent EP3253400B1",
  "about": "“OLEANOYL PEPTIDE COMPOSITION” (Majeed, Muhammed, priority 2015, dated 2023)",
  "key": {"LOX": {"tested_on": "LOX", "test": "Gene expression analysis, full-thickness in vitro skin culture model (EFT-400), qPCR", "format": "cell-based, human", "conditions": "EFT-400 culture, 100 µL applied, 24 hours; values only in Fig. 4", "source_text": "(§1) Each culture was visually inspected to ensure even distribution."}, "TIMP": {"tested_on": "TIMP", "test": "Gene expression analysis, full-thickness in vitro skin culture model (EFT-400), qPCR", "format": "cell-based, human", "conditions": "EFT-400 culture, 100 µL applied, 24 hours; values only in Fig. 6", "source_text": "as §1"}, "HSP-90": {"tested_on": "HSP-90", "test": "Gene expression analysis, full-thickness in vitro skin culture model (EFT-400), qPCR", "format": "cell-based, human", "conditions": "EFT-400 culture, 100 µL applied, 24 hours; values only in Fig. 3", "source_text": "as §1"}, "HSP-47": {"tested_on": "HSP-47", "conditions": "EFT-400 culture, 100 µL applied, 24 hours; values only in Fig. 5", "experimental": "(§2) The objective of the study was to understand how application of test composition containing peptide of SEQ ID No. 1 linked to oleanolic acid represented by STR#1 influences gene expression in the skin. The current study was conducted using a full-thickness in vitro skin culture model (EFT-400, MatTek). One hundred microliters of Test Material was applied to the surface of each test culture and incubated for a period of 24 hours.\n(§3) Treatment and Maintenance of cultures: 100 µL of test composition containing peptide of SEQ ID No. 1 linked to oleanolic acid represented by STR#1 was applied to the center of each EFT-400 culture. A sterile glass spreader was used to distribute the Test Material. Each culture was visually inspected to ensure even distribution. Following application, the cultures were returned to the incubator at 37°C with 5% CO2 for 24 hours. After 24 hours, the Test Materials were washed from the surface of each culture with sterile PBS. Following removal of test material, each culture was cut into quarters and placed into RNA solution.\n(§4) RNA Isolation: RNA was isolated from tissues using a Maxwell 16 LEV RNA Tissue kit following the manufacturer's instructions (Promega) and vacuum concentrated until >200ng/uL as required for OpenArray processing. RNA concentration and purity were determined using a Nanodrop 2000 spectrophotometer. cDNA synthesis: cDNA was generated using a High Capacity cDNA Synthesis Kit according to the manufacturer's instructions for OpenArray processing (Life Technologies).\n(§5) qPCR Processing: qPCR reactions were run using validated Taqman gene expression assays in an OpenArray format. OpenArrays were run in a Life Technologies QuantStudio 12K Flex instrument.\n(§6) Data Analysis: qPCR data was imported into RealTime StatMiner software v4.2 for statistical analysis using the relative quantitation (RQ) method. In the first step of an RQ analysis, the CT value of the target gene is normalized to the CT value of an endogenous control gene for each sample to generate the delta CT (dCT)."}, "KRT4": {"tested_on": "KRT4", "conditions": "gene KRT4 (keratin 4); EFT-400 culture, 100 µL applied, 24 hours", "experimental": "as §2, §3, §4, §5, §6"}, "CLDN7": {"tested_on": "CLDN7", "conditions": "gene CLDN7 (claudin 7); EFT-400 culture, 100 µL applied, 24 hours", "experimental": "as §2, §3, §4, §5, §6"}, "ILIA": {"tested_on": "ILIA", "conditions": "gene ILIA (interleukin 1, alpha); EFT-400 culture, 100 µL applied, 24 hours", "experimental": "as §2, §3, §4, §5, §6"}, "KRT10": {"tested_on": "KRT10", "conditions": "gene KRT10 (keratin 10); EFT-400 culture, 100 µL applied, 24 hours", "experimental": "as §2, §3, §4, §5, §6"}, "PPARD": {"tested_on": "PPARD", "conditions": "gene PPARD (peroxisome proliferator-activated receptor); EFT-400 culture, 100 µL applied, 24 hours", "experimental": "as §2, §3, §4, §5, §6"}, "LCE3D": {"tested_on": "LCE3D", "conditions": "gene LCE3D (late cornified envelope 3D); EFT-400 culture, 100 µL applied, 24 hours", "experimental": "as §2, §3, §4, §5, §6"}, "TGFB1": {"tested_on": "TGFB1", "conditions": "gene TGFB1 (transforming growth factor, beta 1); EFT-400 culture, 100 µL applied, 24 hours", "experimental": "as §2, §3, §4, §5, §6"}, "CALML5": {"tested_on": "CALML5", "conditions": "gene CALML5 (calmodulin-like 5); EFT-400 culture, 100 µL applied, 24 hours", "experimental": "as §2, §3, §4, §5, §6"}, "TP63": {"tested_on": "TP63", "conditions": "gene TP63 (tumor protein p63); EFT-400 culture, 100 µL applied, 24 hours", "experimental": "as §2, §3, §4, §5, §6"}, "TNF": {"tested_on": "TNF", "conditions": "gene TNF (tumor necrosis factor (TNFsuperfamily,member)); EFT-400 culture, 100 µL applied, 24 hours", "experimental": "as §2, §3, §4, §5, §6"}, "AQP5": {"tested_on": "AQP5", "conditions": "gene AQP5 (aquaporin 5); EFT-400 culture, 100 µL applied, 24 hours", "experimental": "as §2, §3, §4, §5, §6"}, "BMP2": {"tested_on": "BMP2", "conditions": "gene BMP2 (bone morphogenetic protein 2); EFT-400 culture, 100 µL applied, 24 hours", "experimental": "as §2, §3, §4, §5, §6"}, "LOR": {"tested_on": "LOR", "conditions": "gene LOR (loricrin); EFT-400 culture, 100 µL applied, 24 hours", "experimental": "as §2, §3, §4, §5, §6"}, "MKI67": {"tested_on": "MKI67", "conditions": "gene MKI67 (antigen identified by Ki-67 antibody); EFT-400 culture, 100 µL applied, 24 hours", "experimental": "as §2, §3, §4, §5, §6"}, "DSG3": {"tested_on": "DSG3", "conditions": "gene DSG3 (desmoglein 3); EFT-400 culture, 100 µL applied, 24 hours", "experimental": "as §2, §3, §4, §5, §6"}, "FLG": {"tested_on": "FLG", "conditions": "gene FLG (filaggrin); EFT-400 culture, 100 µL applied, 24 hours", "experimental": "as §2, §3, §4, §5, §6"}, "ITGB4": {"tested_on": "ITGB4", "conditions": "gene ITGB4 (integrin, beta 4); EFT-400 culture, 100 µL applied, 24 hours", "experimental": "as §2, §3, §4, §5, §6"}, "IL8": {"tested_on": "IL8", "conditions": "gene IL8 (interleukin 8); EFT-400 culture, 100 µL applied, 24 hours", "experimental": "as §2, §3, §4, §5, §6"}, "PTGS2": {"tested_on": "PTGS2", "conditions": "gene PTGS2 (Prostaglandin endoperoxide synthase 2/ COX2); EFT-400 culture, 100 µL applied, 24 hours", "experimental": "as §2, §3, §4, §5, §6"}, "CDSN": {"tested_on": "CDSN", "conditions": "gene CDSN (corneodesmosin); EFT-400 culture, 100 µL applied, 24 hours", "experimental": "as §2, §3, §4, §5, §6"}, "KLK5": {"tested_on": "KLK5", "conditions": "gene KLK5 (kallikrein-related peptidase 5); EFT-400 culture, 100 µL applied, 24 hours", "experimental": "as §2, §3, §4, §5, §6"}, "[1]": {"tested_on": "Transforming Growth Factor-β (TGF- β)", "test": "TGF-β production by Human Dermal Fibroblast cells, ELISA", "format": "cell-based", "conditions": "HDF cells, graded concentrations, 48 hrs, vs un-treated cells; values only in Fig. 1", "experimental": "(§7) Evaluation of Transforming Growth factor beta (TGF-β) and Fibroblast Growth Factor (FGF): Human Dermal Fibroblast (HDF) cells were cultured in DMEM medium with 10% FBS and seeded in 96 well tissue culture plate for the test. […] After 48hrs the supernatant was collected from each well. The amount of TGF-β and FGF produced by the various treated HDF was quantified using ELISA method according to the kit protocol provided by the manufacturer (R&D Systems) and absorbance was measured at 450 nm using Fluostar Optima. Standard curve was generated by plotting absorbance values of standards against appropriate TGF-β/ FGF concentrations. TGF-β/ FGF concentrations of the control and test samples were calculated from the standard graph equation. Percentage increase of expression in test samples was calculated with respect to un-treated cells. The results of the experiment are exemplified in Figs. 1 and 2 respectively. The importance of TGF- β1 in the synthesis of extracellular matrix in well established in • 1. Yang T et al, \"miR-29 mediates TGFβ1-induced extracellular matrix synthesis through activation of PI3K-AKT pathway in human lung fibroblasts\", J Cell Biochem. 2013 Jun;114(6):1336-42; • 2. Tan J et al, \"MicroRNA-29 mediates TGFβ1-induced extracellular matrix synthesis by targeting wnt/β-catenin pathway in human orbital fibroblasts.\" Int J Clin Exp Pathol. 2014 Oct 15;7(11):7571-7; • 3. […]"}, "Fibroblast Growth Factor": {"tested_on": "Fibroblast Growth Factor", "test": "FGF production by Human Dermal Fibroblast cells, ELISA", "format": "cell-based", "conditions": "HDF cells, graded concentrations, 48 hrs, vs un-treated cells; values only in Fig. 2", "experimental": "as §7"}},
  "note": "No end group written: not given here.",
  "data": [
    {"substance": "test composition containing peptide of SEQ ID No. 1: peptide of SEQ ID No. 1 linked to oleanolic acid represented by STR#1; pentapeptide conjugate of oleanolic acid (KTTKS; also: linked to oleanolic acid, place not given here)", "values": [
      {"measurement": "skin expression of LOX gene", "setting": "LOX", "value": "Up-regulation"},
      {"measurement": "skin expression of TIMP gene", "setting": "TIMP", "value": "Up-regulation"},
      {"measurement": "skin expression of HSP-90 gene", "setting": "HSP-90", "value": "Up-regulation"},
      {"measurement": "skin expression of HSP-47 gene", "setting": "HSP-47", "value": "Up-regulation"},
      {"measurement": "Fold Decrease", "setting": "KRT4", "value": -2.11, "unit": "Fold"},
      {"measurement": "Fold Increase", "setting": "CLDN7", "value": 1.69, "unit": "Fold"},
      {"measurement": "Fold Decrease", "setting": "ILIA", "value": -1.77, "unit": "Fold"},
      {"measurement": "Fold Decrease", "setting": "KRT10", "value": -1.71, "unit": "Fold"},
      {"measurement": "Fold Increase", "setting": "PPARD", "value": 1.59, "unit": "Fold"},
      {"measurement": "Fold Increase", "setting": "LCE3D", "value": 1.61, "unit": "Fold"},
      {"measurement": "Fold Increase", "setting": "TGFB1", "value": 1.72, "unit": "Fold"},
      {"measurement": "Fold Increase", "setting": "CALML5", "value": 1.91, "unit": "Fold"},
      {"measurement": "Fold Increase", "setting": "TP63", "value": 1.56, "unit": "Fold"},
      {"measurement": "Fold Decrease", "setting": "TNF", "value": -4.34, "unit": "Fold"},
      {"measurement": "Fold Increase", "setting": "AQP5", "value": 1.97, "unit": "Fold"},
      {"measurement": "Fold Increase", "setting": "BMP2", "value": 1.80, "unit": "Fold"},
      {"measurement": "Fold Increase", "setting": "LOR", "value": 1.63, "unit": "Fold"},
      {"measurement": "Fold Increase", "setting": "MKI67", "value": 1.83, "unit": "Fold"},
      {"measurement": "Fold Increase", "setting": "DSG3", "value": 2.19, "unit": "Fold"},
      {"measurement": "Fold Increase", "setting": "FLG", "value": 2.23, "unit": "Fold"},
      {"measurement": "Fold Increase", "setting": "ITGB4", "value": 1.76, "unit": "Fold"},
      {"measurement": "Fold Decrease", "setting": "IL8", "value": -1.68, "unit": "Fold"},
      {"measurement": "Fold Decrease", "setting": "PTGS2", "value": -1.80, "unit": "Fold"},
      {"measurement": "Fold Increase", "setting": "CDSN", "value": 1.78, "unit": "Fold"},
      {"measurement": "Fold Increase", "setting": "KLK5", "value": 2.44, "unit": "Fold"},
      {"measurement": "TGF- β expression in human dermal fibroblasts", "setting": "[1]", "value": "increase"},
      {"measurement": "fibroblast growth factor expression in human dermal fibroblasts", "setting": "Fibroblast Growth Factor", "value": "increase"}
    ]}
  ]
}
